The target in one experiment is PTGER2 (EP2) (Homo sapiens (Human), UniProt P43116). Description: hEP2 b-arrestin assay (PathHunter HEK 293 PTGER2 b-arrestin cells). The experiment is classed as cell-based. The conditions noted are these: antagonistic activity on hEP2; mean where measured multiple times. In a few lines:
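Readout is β-galactosidase complementation luminescence, expressed as percent of DMSO control (duplicates). PathHunter HEK293 EP2/β-arrestin 2 cells, grown 24 h, received compound for 15 min at 37 °C before a 120 min challenge with PGE2 at 5 μM final, followed by 1 h detection at room temperature.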

The target in the next experiment is PTRGER4 (EP4) (Homo sapiens (Human), UniProt P35408). Description: hEP4 b-arrestin assay (PathHunter HEK 293 PTGER4 b-arrestin cells). The experiment is classed as cell-based. The conditions noted are these: antagonistic activity on hEP4; mean where measured multiple times. In a few lines:
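Antagonist mode: compound is given 15 min at 37 °C, then 20 nM (final) PGE2 for 120 min, in HEK293 cells stably expressing EP4 fused to ProLink and β-arrestin 2 fused to EA. Recruitment read as β-gal luminescence after 1 h reagent at room temperature, as percent of DMSO control.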

Each structure is given as a SMILES string.

Sequence of PTGER2 (EP2) (P43116 whole entry): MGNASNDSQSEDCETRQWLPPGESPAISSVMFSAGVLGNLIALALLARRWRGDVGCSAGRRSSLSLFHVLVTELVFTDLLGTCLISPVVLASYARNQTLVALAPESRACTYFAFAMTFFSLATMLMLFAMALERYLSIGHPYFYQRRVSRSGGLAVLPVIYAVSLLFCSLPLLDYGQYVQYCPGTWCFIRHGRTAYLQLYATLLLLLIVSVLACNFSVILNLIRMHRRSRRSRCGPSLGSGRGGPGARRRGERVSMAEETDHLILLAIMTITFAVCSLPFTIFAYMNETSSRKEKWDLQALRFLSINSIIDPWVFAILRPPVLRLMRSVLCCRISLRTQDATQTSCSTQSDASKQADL
Sequence of PTRGER4 (EP4) (P35408 whole entry, looked up, the tested form may be a part): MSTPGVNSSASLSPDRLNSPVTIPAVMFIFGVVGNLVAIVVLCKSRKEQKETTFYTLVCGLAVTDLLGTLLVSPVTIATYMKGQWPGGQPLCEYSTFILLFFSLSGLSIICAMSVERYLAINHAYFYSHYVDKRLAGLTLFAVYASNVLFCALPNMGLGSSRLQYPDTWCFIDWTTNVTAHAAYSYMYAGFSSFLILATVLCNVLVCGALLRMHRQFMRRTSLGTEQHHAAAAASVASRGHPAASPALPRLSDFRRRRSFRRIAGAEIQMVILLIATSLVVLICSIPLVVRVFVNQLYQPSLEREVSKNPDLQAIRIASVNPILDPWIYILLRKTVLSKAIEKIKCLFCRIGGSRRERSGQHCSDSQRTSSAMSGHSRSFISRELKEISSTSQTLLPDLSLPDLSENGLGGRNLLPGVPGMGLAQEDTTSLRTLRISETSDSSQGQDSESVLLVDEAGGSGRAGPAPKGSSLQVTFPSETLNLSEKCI

In the case of `COc1ccc(F)c2c1cc(C)n2CCNc1cc(-c2ccc3c(c2)CNC3=O)ncn1` [compound 90, 5-{6-[2-(7-Fluoro-4-methoxy-2-methyl-indol-1-yl)-ethylamino]-pyrimidin-4-yl}-2,3-dihydro-isoindol-1-one], the results for the IC50 at PTGER2 (EP2) and against PTRGER4 (EP4) were 0.007 µM and 0.461 µM, respectively.

`COc1ccc(F)c2c1cc(C)n2CCNc1cc(-c2ccc3c(c2)CC(=O)N3)ncn1` [compound 91, 5-{6-[2-(7-Fluoro-4-methoxy-2-methyl-indol-1-yl)-ethylamino]-pyrimidin-4-yl}-1,3-dihydro-indol-2-one]: the IC50 at PTGER2 (EP2) was 0.032 µM; at PTRGER4 (EP4), 0.144 µM.

Take `COc1cc(F)c(F)c2c1cc(C)n2CCNc1cc(-c2ccc3cc[nH]c3c2)ncn1` [compound 92, [2-(6,7-Difluoro-4-methoxy-2-methyl-indol-1-yl)-ethyl]-[6-(1H-indol-6-yl)-pyrimidin-4-yl]-amine]: the IC50 against PTGER2 (EP2) turned out to be 0.048 µM; against PTRGER4 (EP4), 0.358 µM.

Take `Cc1cc(F)c(F)c2c1cc(C)n2CCNc1cc(-c2ccc3c(c2)CC(=O)N3)ncn1` [compound 93]: the IC50 against PTGER2 (EP2) is 0.183 µM; against PTRGER4 (EP4), 0.475 µM.

Regarding `Cc1cc(F)cc2c1cc(C)n2CCNc1cc(-c2ccc(-c3ccon3)cc2)ncn1` [compound 94, [2-(6-Fluoro-2,4-dimethyl-indol-1-yl)-ethyl]-[6-(4-isoxazol-3-yl-phenyl)-pyrimidin-4-yl]-amine], the IC50 on PTGER2 (EP2) amounted to 0.03 µM; at PTRGER4 (EP4) it was 0.299 µM.

`Cc1ccc(F)c2c1cc(C)n2CCNc1cc(-c2ccc3c(c2)CN(C)C3=O)ncn1` [compound 95]: the IC50 was found to be 0.059 µM at PTGER2 (EP2) and 0.167 µM against PTRGER4 (EP4).

As to `Cc1ccc(F)c2c1cc(C)n2CCNc1cc(-c2ccc(-c3cnco3)cc2)ncn1` [compound 97], the IC50 on PTGER2 (EP2) amounted to 0.177 µM; on PTRGER4 (EP4), 0.527 µM.

Regarding `COc1cccc2c1cc(C)n2CCNc1cc(-c2ccc(-c3cscn3)cc2)ncn1` [compound 98, [2-(4-Methoxy-2-methyl-indol-1-yl)-ethyl]-[6-(4-thiazol-4-yl-phenyl)-pyrimidin-4-yl]-amine], the concentration for half-maximal inhibition (IC50) against PTGER2 (EP2) is 0.007 µM; against PTRGER4 (EP4), 0.23 µM.

Take `Cc1ccc(F)c2c1cc(C)n2CCNc1cc(-c2ccc(-c3nnc[nH]3)cc2)ncn1` [compound 99]: the 50% inhibitory concentration (IC50) at PTGER2 (EP2) was determined as 0.113 µM; against PTRGER4 (EP4), 0.123 µM.

For `COc1cccc2c1cc(C)n2CCNc1cc(-c2ccc(-c3nnc[nH]3)cc2)ncn1` [compound 100, [2-(4-Methoxy-2-methyl-indol-1-yl)-ethyl]-{6-[4-(4H-[1,2,4]triazol-3-yl)-phenyl]-pyrimidin-4-yl}-amine], the IC50 was found to be 0.011 µM on PTGER2 (EP2) and 0.202 µM against PTRGER4 (EP4).

Regarding `COc1ccc(F)c2c1cc(C)n2CCNc1cc(-c2csc(CO)c2)ncn1` [compound 101], the IC50 came to 0.037 µM on PTGER2 (EP2) and 0.548 µM on PTRGER4 (EP4).

Consider `Cc1c(F)cc2c(cc(C)n2CCNc2cc(-c3ccc(C(=O)O)c(CC(C)C)c3)ncn2)c1F` [compound 102], for which the IC50 at PTGER2 (EP2) worked out at 0.142 µM; against PTRGER4 (EP4), 0.597 µM.

For the molecule `CCc1cc(-c2cc(NCCn3c(C)cc4c(C)ccc(F)c43)ncn2)sc1C(=O)O` [compound 103], the IC50 on PTGER2 (EP2) turned out to be 0.013 µM; at PTRGER4 (EP4) it was 0.058 µM.

Take `CCc1cc(-c2cc(NCCn3c(C)cc4c(C)cc(F)cc43)ncn2)sc1C(=O)O` [compound 104]: the half-inhibitory concentration (IC50) on PTGER2 (EP2) stood at 0.024 µM; on PTRGER4 (EP4) it was 0.044 µM.

In the case of `Cc1cc(F)cc2c1cc(C)n2CCNc1cc(-c2ccc(C(=O)O)c(Cl)c2)ncn1` [compound 105], the half-maximal inhibitory concentration (IC50) against PTGER2 (EP2) came to 0.034 µM; on PTRGER4 (EP4), 0.934 µM.

`Cc1cc(-c2cc(NCCn3c(C)cc4c(Cl)ccc(F)c43)ncn2)ccc1C(=O)O` [compound 106]: the IC50 at PTGER2 (EP2) came to 0.044 µM; on PTRGER4 (EP4), 0.698 µM.

Take `COc1ccc(F)c2c1cc(C)n2CCNc1cc(-c2cc(C)c(C(=O)O)s2)ncn1` [compound 107]: the IC50 against PTGER2 (EP2) came to 0.005 µM; against PTRGER4 (EP4), 0.046 µM.

Consider `CCOc1cc(-c2cc(NCCn3c(C)cc4c(Cl)cccc43)ncn2)sc1C(=O)O` [compound 108], for which the IC50 at PTGER2 (EP2) came out at 0.001 µM; against PTRGER4 (EP4), 0.015 µM.

With `COc1ccc(F)c2c1cc(C)n2CCNc1cc(-c2ccc(C(=O)O)cc2)ncn1` [compound 109], the IC50 against PTGER2 (EP2) came out at 0.049 µM; against PTRGER4 (EP4), 0.955 µM.

Take `CCc1cc(-c2cc(NCCn3c(C)cc4c(OC)cccc43)ncn2)sc1C(=O)O` [compound 110]: the concentration for half-maximal inhibition (IC50) was determined as 0.003 µM against PTGER2 (EP2) and 0.046 µM at PTRGER4 (EP4).

Consider `COc1ccc(Cl)c2c1cc(C)n2CCNc1cc(-c2cc(F)c(C(=O)O)s2)ncn1` [compound 111], for which the IC50 against PTGER2 (EP2) is 0.031 µM; against PTRGER4 (EP4) it was 0.166 µM.

As for `COc1ccc(F)c2c1cc(C)n2CCNc1cc(-c2cc(F)c(C(=O)O)s2)ncn1` [compound 112], the IC50 at PTGER2 (EP2) worked out at 0.004 µM; at PTRGER4 (EP4), 0.069 µM.

On to `COc1cc(F)cc2c1cc(C)n2CCNc1cc(-c2cc(F)c(C(=O)O)s2)ncn1` [compound 113], for which the values for the IC50 at PTGER2 (EP2) and at PTRGER4 (EP4) were 0.008 µM and 0.057 µM, respectively.

Regarding `COc1ccc(F)c2c1cc(C)n2CCNc1cc(-c2cc(Cl)c(C(=O)O)s2)ncn1` [compound 114], the IC50 against PTGER2 (EP2) is 0.004 µM; against PTRGER4 (EP4), 0.027 µM.

For the molecule `COc1ccc(F)c2c1cc(C)n2CCNc1cc(-c2ccc3[nH]c(=O)[nH]c3c2)ncn1` [compound 115], the figures for the IC50 against PTGER2 (EP2) and on PTRGER4 (EP4) were 0.056 µM and 0.742 µM, respectively.

Consider `COc1ccc(F)c2c1cc(C)n2CCNc1cc(-c2ccc(S(=O)(=O)O)cc2)ncn1` [compound 116, 4-{6-[2-(7-Fluoro-4-methoxy-2-methyl-indol-1-yl)-ethylamino]-pyrimidin-4-yl}-benzenesulfonic acid], for which the IC50 against PTGER2 (EP2) stood at 0.019 µM; against PTRGER4 (EP4), 0.382 µM.

On to `CCOc1cc(-c2cc(NCCn3c(C)cc4ccc(OC)cc43)ncn2)sc1C(=O)O` [compound 117, 3-Ethoxy-5-{6-[2-(6-methoxy-2-methyl-indol-1-yl)-ethylamino]-pyrimidin-4-yl}-thiophene-2-carboxylic acid], for which the values for the IC50 against PTGER2 (EP2) and against PTRGER4 (EP4) were 0.001 µM and 0.114 µM, respectively.

On to `CCc1cc(-c2cc(NCCn3c(C)cc4c(CC)cccc43)ncn2)ccc1C(=O)O` [compound 118, 2-Ethyl-4-{6-[2-(4-ethyl-2-methyl-indol-1-yl)-ethylamino]-pyrimidin-4-yl}-benzoic acid], for which the concentration for half-maximal inhibition (IC50) turned out to be 0.612 µM against PTGER2 (EP2) and 0.933 µM against PTRGER4 (EP4).

For `Cc1cc2ccccc2n1CCNc1cc(-c2ccc(C(=O)O)c(CC(C)C)c2)ncn1` [compound 119, 2-Isobutyl-4-{6-[2-(2-methyl-indol-1-yl)-ethylamino]-pyrimidin-4-yl}-benzoic acid], the values for the IC50 at PTGER2 (EP2) and against PTRGER4 (EP4) were 0.018 µM and 0.941 µM, respectively.

As for `CCCc1cc(-c2cc(NCCn3c(C)cc4c(C)cccc43)ncn2)ccc1C(=O)O` [compound 120, 4-{6-[2-(2,4-Dimethyl-indol-1-yl)-ethylamino]-pyrimidin-4-yl}-2-propyl-benzoic acid], the results for the IC50 on PTGER2 (EP2) and on PTRGER4 (EP4) were 0.006 µM and 0.495 µM, respectively.

On to `CCc1cc(-c2cc(NCCn3c(C)cc4c(F)ccc(F)c43)ncn2)ccc1C(=O)O` [compound 121, 4-{6-[2-(4,7-Difluoro-2-methyl-indol-1-yl)-ethylamino]-pyrimidin-4-yl}-2-ethyl-benzoic acid], for which the results for the IC50 against PTGER2 (EP2) and at PTRGER4 (EP4) were 0.005 µM and 0.765 µM, respectively.

Consider `CCc1cc(-c2cc(NCCn3c(C)cc4cc(F)cc(F)c43)ncn2)ccc1C(=O)O` [compound 122, 4-{6-[2-(5,7-Difluoro-2-methyl-indol-1-yl)-ethylamino]-pyrimidin-4-yl}-2-ethyl-benzoic acid], for which the IC50 against PTGER2 (EP2) was found to be 0.009 µM; against PTRGER4 (EP4), 0.974 µM.

Take `Cc1cc(-c2cc(NCCn3c(C)cc4c(C)ccc(F)c43)ncn2)cc(Cl)c1C(=O)O` [compound 123, 2-Chloro-4-{6-[2-(7-fluoro-2,4-dimethyl-indol-1-yl)-ethylamino]-pyrimidin-4-yl}-6-methyl-benzoic acid]: the IC50 against PTGER2 (EP2) was 0.03 µM; against PTRGER4 (EP4) it was 0.158 µM.

As for `CCOc1cc(-c2cc(NCCn3c(C)cc4c(C)ccc(F)c43)ncn2)ccc1CO` [compound 124, (2-Ethoxy-4-{6-[2-(7-fluoro-2,4-dimethyl-indol-1-yl)-ethylamino]-pyrimidin-4-yl}-phenyl)-methanol], the IC50 at PTGER2 (EP2) turned out to be 0.007 µM; against PTRGER4 (EP4), 0.151 µM.

Consider `CCCc1cc(-c2cc(NCCn3c(C)cc4cccc(F)c43)ncn2)ccc1C(=O)O` [compound 125, 4-{6-[2-(7-Fluoro-2-methyl-indol-1-yl)-ethylamino]-pyrimidin-4-yl}-2-propyl-benzoic acid], for which the IC50 against PTGER2 (EP2) amounted to 0.008 µM; at PTRGER4 (EP4) it was 0.932 µM.

Consider `Cc1ccc(F)c2c1cc(C)n2CCNc1cc(-c2cc(Br)c(C(=O)O)cc2F)ncn1` [compound 126], for which the figures for the IC50 at PTGER2 (EP2) and against PTRGER4 (EP4) were 0.128 µM and 0.928 µM, respectively.

`CCOc1cc(-c2cc(NCCn3c(C)cc4c(OC)cccc43)ncn2)ccc1CO` [compound 127, (2-Ethoxy-4-{6-[2-(4-methoxy-2-methyl-indol-1-yl)-ethylamino]-pyrimidin-4-yl}-phenyl)-methanol]: the values for the 50% inhibitory concentration (IC50) against PTGER2 (EP2) and against PTRGER4 (EP4) were 0.004 µM and 0.192 µM, respectively.

Turning to `CCOc1cc(-c2cc(NCCn3c(C)cc4c(C)cccc43)ncn2)ccc1C(=O)O` [compound 128, 4-{6-[2-(2,4-Dimethyl-indol-1-yl)-ethylamino]-pyrimidin-4-yl}-2-ethoxy-benzoic acid], the IC50 against PTGER2 (EP2) was found to be 0.016 µM; on PTRGER4 (EP4) it was 0.417 µM.

As to `COc1cc(-c2cc(NCCn3c(C)cc4c(C)ccc(F)c43)ncn2)ccc1C(=O)O` [compound 129, 4-{6-[2-(7-Fluoro-2,4-dimethyl-indol-1-yl)-ethylamino]-pyrimidin-4-yl}-2-methoxy-benzoic acid], the IC50 turned out to be 0.048 µM on PTGER2 (EP2) and 0.622 µM against PTRGER4 (EP4).
